Data reported in patent US20230114241A1, “METHODS OF TREATING EPILEPSY USING THE SAME” (Trevena, Inc., priority 2019, published 2023).

The molecules below were run against human sphingosine-1-phosphate receptor 1 (S1P1) (Homo sapiens, UniProt P21453) (assay: Inhibition of cAMP production (HTRF cAMP HiRange), S1P1 CHO-K1 cells). Details: inhibition of cAMP production, S1P1; read-out: hS1P1 CAMP pEC50 (converted).
Type: cell-based
Procedure: Stable clonal Chinese hamster ovary K1 (CHO-K1) cells co-expressing EA-β-arrestin2 and the human sphingosine-1-phosphate receptor 1 (NM_001400, S1P1) with a C-terminal Prolink™ tag were purchased from DiscoverX corporation (Cat #: 93-0207C2).
Cell lines were cultured in AssayComplete™ Media 6 (DiscoverX Corporation, Cat #: 920018GF2) at 37° C. and 5% CO2 in a humidified CO2 and temperature-controlled incubator. To begin assay plating, cells were washed with Dulbecco's phosphate buffered saline (CellGro, Cat #: 21-031-CV) and lifted from the culturing flask by incubation (37° C., 5 min) with CellStripper (Cellgro, Cat #: 25-056-CI). […] Plated cells were incubated overnight at 37° C. and 5% CO2 in a humidified CO2 and temperature-controlled incubator.
Agonist-promoted G-protein responses were determined by measuring changes in intracellular cAMP using the HTRF® cAMP HiRange kit (CisBio, Cat #: 62AM6PEJ) based on time-resolved fluorescence resonance energy transfer (TR-FRET) technology. […] Following a 30-minute incubation at 37° C. and 5% CO2 in a humidified CO2 and temperature-controlled incubator, the components of the cAMP HiRange kit were added as per the manufacturer's instructions. After an hour incubation at room temperature, plates were analyzed by a BMG PheraStar microplate reader.
These values are normalized to fingolimod, a known agonist of the sphingosine-1-phosphate 1 receptor.

human sphingosine-1-phosphate receptor 1 (S1P1), sequence (P21453 whole entry): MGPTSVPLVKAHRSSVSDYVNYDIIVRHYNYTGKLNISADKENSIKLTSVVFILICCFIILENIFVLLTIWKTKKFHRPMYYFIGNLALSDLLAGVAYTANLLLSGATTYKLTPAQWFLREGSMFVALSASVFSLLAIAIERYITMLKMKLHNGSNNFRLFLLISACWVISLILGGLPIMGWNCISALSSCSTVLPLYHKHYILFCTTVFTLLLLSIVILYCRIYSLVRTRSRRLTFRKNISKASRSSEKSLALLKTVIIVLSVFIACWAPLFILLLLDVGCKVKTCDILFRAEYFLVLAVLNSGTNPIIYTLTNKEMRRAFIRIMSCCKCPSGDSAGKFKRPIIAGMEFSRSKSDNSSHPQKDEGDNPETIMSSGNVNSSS

Row | EC50 [µM] | SMILES
1 | < 0.316 | CC(C)n1nnc2cc(-c3nc(-c4ccccc4N)co3)ccc21 [Compound 438, 2-{2-[1-(propan-2-yl)-1H-1,2,3-benzotriazol-5-yl]-1,3-oxazol-4-yl}aniline]
2 | > 0.316 | CC(C)n1nnc2cc(-c3nc4ccncc4o3)ccc21 [Compound 503, 2-(1-isopropyl-1H-benzo[d][1,2,3]triazol-5-yl)oxazolo[5,4-c]pyridine]
3 | < 0.316 | COc1ccccc1-c1nc(-c2ccc3c(c2)nnn3C(C)C)co1 [Compound 575, 5-[2-(2-methoxy-phenyl)-1,3-oxazol-4-yl]-1-(propan-2-yl)-1H-1,2,3-benzotriazole]
4 | < 0.316 | Cc1ccc2nc(-c3ccc4c(c3)nnn4C(C)C)oc2c1 [Compound 420, 2-(1-isopropyl-1H-benzo[d][1,2,3]triazol-5-yl)-6-methyl-benzo[d]oxazole]
5 | < 0.316 | COc1cc(C)c2nc(-c3ccc4c(c3)nnn4C(C)C)oc2c1 [Compound 436, 2-(1-isopropyl-1H-benzo[d][1,2,3]triazol-5-yl)-6-methoxy-4-methylbenzo[d]oxazole]
6 | > 0.316 | CC(C)n1nnc2cc(-c3nc(-c4ccccn4)co3)ccc21 [Compound 474, 1-(propan-2-yl)-5-[4-(pyridin-2-yl)-1,3-oxazol-2-yl]-1H-1,2,3-benzotriazole]
7 | < 0.316 | CNc1ccccc1-c1nc(-c2ccc3c(c2)nnn3C(C)C)no1 [Compound 599, N-methyl-2-{3-[1-(propan-2-yl)-1H-l,2,3-benzotriazol-5-yl]-1,2,4-oxadiazol-5-yl}aniline]
8 | > 0.316 | CC(C)n1nnc2cc(-c3nc4c(Br)cccc4o3)ccc21 [Compound 428, 4-bromo-2-(1-isopropylbenzotriazol-5-yl)-1,3-benzoxazole]
9 | < 0.316 | COc1cccc2oc(-c3ccc4c(c3)nnn4C(C)C)nc12 [Compound 424, 2-(1-isopropyl-1H-benzo[d][1,2,3]triazol-5-yl)-4-methoxy-benzo[d]oxazole]
10 | < 0.316 | CC(C)n1nnc2cc(-c3noc(-c4ccccc4N)n3)ccc21 [Compound 576, 2-{3-[1-(propan-2-yl)-1H-1,2,3-benzotriazol-5-yl]-1,2,4-oxadiazol-5-yl}aniline]
11 | < 0.316 | CCC1(CC)CC(=O)c2cc(-c3nc(-c4ccc(NC(C)=O)cc4OC(F)(F)F)no3)ccc2O1 [Compound 584, N-{4-[5-(2,2-diethyl-4-oxo-3,4-dihydro-2H-1-benzopyran-6-yl)-1,2,4-oxadiazol-3-yl]-3-(trifluoromethoxy)phenyl}acetamide]
12 | > 0.316 | CC(C)n1ccc2cc(-c3nc(-c4ccccc4F)cs3)ccc21 [Compound 403, 4-(2-fluorophenyl)-2-(1-isopropylindol-5-yl)thiazole]
13 | < 0.316 | CC(C)n1nnc2cc(-c3nc4c(o3)COc3ccccc3-4)ccc21 [Compound 462, 5-{4H-chromeno[4,3-d][1,3]oxazol-2-yl}-1-(propan-2-yl)-1H-1,2,3-benzotriazole]

Same assay, conditions: inhibition of cAMP production; potency; read-out: hS1P1 CAMP pEC50 (converted)

Row | EC50 [µM] | SMILES
14 | > 0.316 | O=C1CC2(CCCCC2)Oc2ccc(-c3nc(-c4cccnc4)no3)cc21 [Compound 41, 6-[3-(pyridin-3-yl)-1,2,4-oxadiazol-5-yl]-3,4-dihydrospiro[1-benzopyran-2,1′-cyclohexane]-4-one]
15 | > 0.316 | Cc1ccsc1-c1noc(-c2ccc3c(c2)nnn3CC2CC2)n1 [Compound 239, 1-(cyclopropyl-methyl)-5-[3-(3-methylthiophen-2-yl)-1,2,4-oxadiazol-5-yl]-1H-1,2,3-benzotriazole]
16 | < 0.316 | N#Cc1cc(-c2nnc(-c3ccc4[nH]cnc4c3)o2)ccc1NCC1CC1 [Compound 357, 5-[5-(1H-1,3-benzo-diazol-5-yl)-1,3,4-oxadiazol-2-yl]-2-[(cyclopropylmethyl)amino]benzonitrile]
17 | < 0.316 | CCC1(CC)CC(=O)c2cc(-c3nc(-c4sccc4C)no3)ccc2O1 [Compound 265, 2,2-diethyl-6-(3-(3-methylthiophen-2-yl)-1,2,4-oxadiazol-5-yl)chroman-4-one]
18 | > 0.316 | CCC1(CC)CC(=O)c2cc(-c3nc(-c4ccc(C)cc4)no3)ccc2O1 [Compound 269, 2,2-diethyl-6-[3-(p-tolyl)-1,2,4-oxadiazol-5-yl]chroman-4-one]
19 | < 0.316 | C=CCNc1ccc(-c2nc(-c3ccc4c(c3)CC(=O)N4)no2)cc1C#N [Compound 224, 2-(allylamino)-5-(3-(2-oxoindolin-5-yl)-1,2,4-oxadiazol-5-yl)benzonitrile]
20 | > 0.316 | Cc1ccncc1-c1noc(-c2ccc3c(c2)nnn3C2CC2)n1 [Compound 94, 1-cyclopropyl-5-[3-(4-methylpyridin-3-yl)-1,2,4-oxadiazol-5-yl]-1H-1,2,3-benzotriazole]
21 | > 0.316 | FC(F)(F)Oc1ccccc1-c1nc(-c2ccc3c(c2)nnn3C2CCCC2)no1 [Compound 84, 3-(1-cyclopentyl-1H-benzo[d][1,2,3]triazol-5-yl)-5-(2-(trifluoro-methoxy)phenyl)-1,2,4-oxadiazole]
22 | > 0.316 | CCCn1nnc2cc(-c3nc(-c4ccncc4)no3)ccc21 [Compound 205, 1-propyl-5-[3-(pyridin-4-yl)-1,2,4-oxadiazol-5-yl]-1H-1,2,3-benzotriazole]
23 | > 0.316 | COc1cccnc1-c1noc(-c2ccc3c(c2)nnn3C2CCCC2)n1 [Compound 203, 1-cyclopentyl-5-[3-(3-methoxy-pyridin-2-yl)-1,2,4-oxadiazol-5-yl]-1H-1,2,3-benzotriazole]
24 | > 0.316 | CCC1(CC)CC(=O)c2cc(-c3nc(-c4ccc5[nH]cnc5c4)no3)ccc2O1 [Compound 211, 6-(3-(1H-benzo[d]imidazol-5-yl)-1,2,4-oxadiazol-5-yl)-2,2-diethylchroman-4-one]
25 | < 0.316 | C=CCNc1ccc(-c2nc(-c3ccc4[nH]cnc4c3)no2)cc1C#N [Compound 177, 5-(3-(1H-benzo[d]imidazol-5-yl)-1,2,4-oxadiazol-5-yl)-2-(allylamino)benzonitrile]
26 | < 0.316 | N#Cc1cc(-c2nc(-c3ccc4c(c3)CC(=O)N4)no2)ccc1NCC1CC1 [Compound 210, 2-((cyclopropyl-methyl)amino)-5-(3-(2-oxoindolin-5-yl)-1,2,4-oxadiazol-5-yl)benzonitrile]
27 | < 0.316 | N#Cc1cc(-c2nc(-c3ccc4c(c3)CCC(=O)N4)no2)ccc1NCCF [Compound 343, 2-[(2-fluoroethyl)amino]-5-[3-(2-oxo-1,2,3,4-tetrahydroquinolin-6-yl)-1,2,4-oxadiazol-5-yl]benzonitrile]
28 | > 0.316 | CCC1(CC)CC(=O)c2cc(-c3nc(-c4cnccc4OC)no3)ccc2O1 [Compound 303, 2,2-diethyl-6-(3-(4-methoxypyridin-3-yl)-1,2,4-oxadiazol-5-yl)chroman-4-one]
29 | > 0.316 | CC1(C)CC(=O)c2cc(-c3nc(-c4cccnc4)no3)ccc2O1 [Compound 274, 2,2-dimethyl-6-[3-(pyridin-3-yl)-1,2,4-oxadiazol-5-yl]-3,4-dihydro-2H-1-benzopyran-4-one]
30 | > 0.316 | COc1cccc(-c2nc(-c3ccc4c(c3)nnn4C3CCCC3)no2)c1 [Compound 130, 3-(1-cyclopentyl-1H-benzo[d][1,2,3]triazol-5-yl)-5-(3-methoxy-phenyl)-1,2,4-oxadiazole]
31 | < 0.316 | c1cc(-c2noc(-c3ccc4c(c3)nnn4C3CCCC3)n2)ccn1 [Compound 174, 1-cyclopentyl-5-[3-(pyridin-4-yl)-1,2,4-oxadiazol-5-yl]-1H-1,2,3-benzotriazole]
32 | > 0.316 | O=C1CCOc2ccc(-c3nc(-c4cccnc4)no3)cc21 [Compound 102, 6-[3-(pyridin-3-yl)-1,2,4-oxadiazol-5-yl]-3,4-dihydro-2H-1-benzopyran-4-one]

Further lines, the molecule ahead of its results:

Row | SMILES | EC50 [µM]
33 | COc1ccc(-c2coc(-c3ccc4c(c3)nnn4C(C)C)n2)cc1 [Compound 250, 5-[4-(4-methoxy-phenyl)-1,3-oxazol-2-yl]-1-(propan-2-yl)-1H-1,2,3-benzotriazole] | > 0.316
34 | Cc1ccsc1-c1noc(-c2ccc3c(c2)nnn3CC(C)C)n1 [Compound 75, 1-(2-methylpropyl)-5-[3-(3-methylthiophen-2-yl)-1,2,4-oxadiazol-5-yl]-1H-1,2,3-benzotriazole] | < 0.316
35 | COc1ccc(-c2cnc(-c3ccc4c(c3)nnn4C(C)C)s2)cc1 [Compound 109, 2-(1-isopropyl-1H-benzo[d][1,2,3]triazol-5-yl)-5-(4-methoxy-phenyl)thiazole] | > 0.316
36 | CC(C)n1ccc2cc(-c3nc(-c4cccc5c4OCO5)no3)ccc21 [Compound 326, 3-(benzo[d][1,3]dioxol-4-yl)-5-(1-isopropyl-1H-indol-5-yl)-1,2,4-oxadiazole] | > 0.316
37 | Cc1ccsc1-c1noc(-c2ccc3c(c2)nnn3CC(C)(C)O)n1 [Compound 140] | < 0.316
38 | CC(C)n1nnc2cc(-c3nc(-c4ccccc4)co3)ccc21 [Compound 294, 5-(4-phenyl-1,3-oxazol-2-yl)-1-(propan-2-yl)-1H-1,2,3-benzotriazole] | > 0.316
39 | COc1ccccc1-c1nnc(-c2ccc3[nH]c(=O)oc3c2)o1 [Compound 349, 6-[5-(2-methoxyphenyl)-1,3,4-oxadiazol-2-yl]-2,3-dihydro-1,3-benzoxazol-2-one] | < 0.316
